From ChEMBL document CHEMBL1201862, “PubChem BioAssay data set” (2004)
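Assay format: 96-well plates, 48-hour exposure. GI50 marks 50% less growth.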 Active and inactive are the calls of the source. Cut-off read from the data, not from the text of the source: active = GI50 up to about 1.1 µM and inactive = higher.

What was measured:
Experiment in all cases: NCI anticancer screen, dose series, 48 h
786-0 = test system: 786-0
A498 = test system: A498
A549 = test system: A549
ACHN = test system: ACHN
BT-549 = test system: BT-549
CAKI-1 = test system: CAKI-1
CCRF-CEM = test system: CCRF-CEM
COLO 205 = test system: COLO 205
DU-145 = test system: DU-145
EKVX = test system: EKVX
HCC 2998 = test system: HCC 2998
HCT-116 = test system: HCT-116
HCT-15 = test system: HCT-15
HL-60 = test system: HL-60
HOP-62 = test system: HOP-62
HOP-92 = test system: HOP-92
HT-29 = test system: HT-29
Hs-578T = test system: Hs-578T
IGROV-1 = test system: IGROV-1
K562 = test system: K562
KM12 = test system: KM12
LOX IMVI = test system: LOX IMVI
M14 = test system: M14
MCF7 = test system: MCF7
MDA-MB-231 = test system: MDA-MB-231
MDA-MB-435 = test system: MDA-MB-435
MDA-N = test system: MDA-N
MOLT-4 = test system: MOLT-4
Malme-3M = test system: Malme-3M
NCI-H226 = test system: NCI-H226
NCI-H23 = test system: NCI-H23
NCI-H460 = test system: NCI-H460
NCI-H522 = test system: NCI-H522
NCI/ADR-RES = test system: NCI/ADR-RES
OVCAR-3 = test system: OVCAR-3
OVCAR-4 = test system: OVCAR-4
OVCAR-5 = test system: OVCAR-5
OVCAR-8 = test system: OVCAR-8
PC-3 = test system: PC-3
RPMI-8226 = test system: RPMI-8226
RXF 393 = test system: RXF 393
SF-268 = test system: SF-268
SF-295 = test system: SF-295
SF-539 = test system: SF-539
SK-MEL-28 = test system: SK-MEL-28
SK-MEL-2 = test system: SK-MEL-2
SK-MEL-5 = test system: SK-MEL-5
SK-OV-3 = test system: SK-OV-3
SN12C = test system: SN12C
SNB-19 = test system: SNB-19
SNB-75 = test system: SNB-75
SR = test system: SR
SW-620 = test system: SW-620
T47D = test system: T47D
TK-10 = test system: TK-10
U-251 = test system: U-251
UACC-257 = test system: UACC-257
UACC-62 = test system: UACC-62
UO-31 = test system: UO-31

Measured: GI50

COc1c2c(nc3ccccc13)-c1cc(C(CC(=O)OC(C)(C)C)C(=O)OC(C)C)c(CO)c(=O)n1C2 (configuration not stated)
> 78.2 µM: HCT-15
inactive: 786-0 30.5 µM | A498 57.3 µM | A549 52.8 µM | ACHN 21.9 µM | BT-549 > 66.4 µM | CAKI-1 4.22 µM | CCRF-CEM 4.48 µM | COLO 205 88.5 µM | DU-145 22.2 µM | EKVX > 100 µM | HCC 2998 > 100 µM | HCT-116 37 µM | HL-60 > 25.2 µM | HOP-62 24.9 µM | HOP-92 40 µM | HT-29 58.5 µM | Hs-578T > 75.3 µM | IGROV-1 47.4 µM | K562 33.6 µM | KM12 > 100 µM | LOX IMVI 32.4 µM | M14 39 µM | MCF7 6.85 µM | MDA-MB-231 > 100 µM | MDA-MB-435 > 94.2 µM | MDA-N > 100 µM | MOLT-4 3.67 µM | Malme-3M > 100 µM | NCI-H226 67.8 µM | NCI-H23 55.7 µM | NCI-H460 10.4 µM | NCI-H522 37.6 µM | NCI/ADR-RES 24.5 µM | OVCAR-3 > 100 µM | OVCAR-4 > 70.5 µM | OVCAR-5 98.6 µM | OVCAR-8 71.1 µM | PC-3 > 86.1 µM | RPMI-8226 21.3 µM | RXF 393 > 100 µM | SF-268 > 62.8 µM | SF-295 29.2 µM | SF-539 36.9 µM | SK-MEL-28 > 73.8 µM | SK-MEL-2 > 100 µM | SK-MEL-5 43.5 µM | SK-OV-3 > 40.2 µM | SN12C 45.8 µM | SNB-19 53.8 µM | SNB-75 > 93.8 µM | SR 5.62 µM | SW-620 > 96.6 µM | T47D 22.1 µM | TK-10 > 100 µM | U-251 42.5 µM | UACC-257 > 100 µM | UACC-62 17.8 µM | UO-31 > 36.7 µM

N=C(N)SCc1ccc2c(c1)Sc1ccccc1O2
inactive: 786-0 4.76 µM | A498 15.6 µM | A549 6.73 µM | ACHN 4.47 µM | BT-549 3.62 µM | CAKI-1 6.46 µM | CCRF-CEM 6.78 µM | COLO 205 2.36 µM | DU-145 8.69 µM | EKVX 11.6 µM | HCC 2998 2.35 µM | HCT-116 5.86 µM | HL-60 4.57 µM | HOP-62 14.1 µM | HOP-92 6.31 µM | HT-29 2.9 µM | Hs-578T 4.56 µM | IGROV-1 3.34 µM | K562 6.03 µM | KM12 5.32 µM | LOX IMVI 6 µM | M14 2.16 µM | MCF7 4.53 µM | MDA-MB-231 10.3 µM | MDA-MB-435 3.78 µM | MDA-N 3.93 µM | MOLT-4 7.71 µM | Malme-3M 11.1 µM | NCI-H226 11.2 µM | NCI-H23 6.5 µM | NCI-H460 6.79 µM | NCI-H522 1.44 µM | NCI/ADR-RES 6.65 µM | OVCAR-3 4.69 µM | OVCAR-4 6.87 µM | OVCAR-5 11.6 µM | OVCAR-8 10.6 µM | PC-3 4.74 µM | RPMI-8226 8.05 µM | RXF 393 3.61 µM | SF-268 13.1 µM | SF-295 10.5 µM | SF-539 2.07 µM | SK-MEL-28 13.6 µM | SK-MEL-2 5.12 µM | SK-MEL-5 1.57 µM | SK-OV-3 12.9 µM | SN12C 8.95 µM | SNB-19 11.4 µM | SNB-75 5.65 µM | SR 5.78 µM | SW-620 5.85 µM | T47D 8.07 µM | TK-10 5.11 µM | U-251 18.4 µM | UACC-257 5.82 µM | UACC-62 4.62 µM | UO-31 3.37 µM
3.33 µM: HCT-15

COc1ccc(N2CN3OC(=O)N(c4ccc(OC)cc4)[C@@]3(c3ccccc3)C2)cc1
inactive: 786-0 51.1 µM | A498 19.5 µM | A549 29 µM | ACHN 61.9 µM | BT-549 21.5 µM | CAKI-1 19.1 µM | CCRF-CEM 6 µM | COLO 205 13.4 µM | DU-145 81.5 µM | EKVX 23.2 µM | HCC 2998 11.5 µM | HCT-116 18.7 µM | HL-60 2.77 µM | HOP-62 32.6 µM | HOP-92 15.9 µM | HT-29 6.49 µM | Hs-578T 37.6 µM | IGROV-1 20.7 µM | K562 4.02 µM | KM12 6.46 µM | LOX IMVI 23 µM | M14 34.4 µM | MCF7 16.9 µM | MDA-MB-231 10 µM | MDA-MB-435 2.4 µM | MDA-N 3.29 µM | MOLT-4 7.23 µM | Malme-3M 10.8 µM | NCI-H226 47.6 µM | NCI-H23 23.6 µM | NCI-H460 16.6 µM | NCI-H522 10.5 µM | NCI/ADR-RES 9.48 µM | OVCAR-3 13.1 µM | OVCAR-4 20.3 µM | OVCAR-5 54.6 µM | OVCAR-8 33.3 µM | PC-3 10.8 µM | RPMI-8226 18.7 µM | RXF 393 19.9 µM | SF-268 73.6 µM | SF-295 16.5 µM | SF-539 17 µM | SK-MEL-28 34.5 µM | SK-MEL-2 5.51 µM | SK-MEL-5 11.9 µM | SK-OV-3 20.8 µM | SN12C 31.6 µM | SNB-19 44 µM | SNB-75 14.4 µM | SR 2.79 µM | SW-620 6.04 µM | T47D 14.3 µM | TK-10 30.8 µM | U-251 11.9 µM | UACC-257 26.5 µM | UACC-62 13.6 µM | UO-31 32.9 µM
5.18 µM: HCT-15
